Results: patent US10264789B2, “Rodentia animal repellent” (SUMITOMO CHEMICAL COMPANY, LIMITED, priority 2014, dated 2019)

Tested on: female mouse (Jcl: ICR lineage)
Experiment: Repellent test (Experimental Example 1, two-section feed choice apparatus)
Format: in vivo
Details: drug amount 0.5 g on one sheet of filter paper
Experimental: Experimental Example 1 (Test Animal: Mouse)
The repellent test was performed using the repellent test apparatus described in FIG. 1. The apparatus has a residential section for the test animal in the center part, test section 1 and test section 2 setting food on both ends, test section 1 and the residential section are connected by a cylindrical path (diameter 0.05 m, length 2.08 m), and test section 2 and the residential section are also connected by a cylindrical path. The test section 1 and test section 2 are resin cuboid shape (0.68 m×0.40 m×0.32 m) containers, and the connection parts with the paths are opened. The residential section is also a resin cuboid shape (0.28 m×0.45 m×0.16 m), and the upper part made of an iron net so that the air can be taken in. An openable door is set in the connection part between the residential section and the path. Chips for floor:clean chip SP (manufactured by CLEA Japan, Inc.) were spread all over the bottom part of the residential section.
An acclimation operation was performed before the repellent test to make the test animal experienced with the test apparatus.
A weighed feed (solid food CE-2 for breeding and raising, manufactured by CLEA Japan, Inc.) (initial feed weight about 10 g) was set in each of test section 1 and test section 2, one female mouse (Jcl: ICR lineage) was placed in the residential section. One day later, the feed remaining in both test sections was weighed, and the eating rate was calculated by the following formula. When the eating rates of the both test sections are considerably different, the feed was changed to a new one, and the acclimation operation was repeated for several days until the eating rate was stabilized, and the eating rates of the both test sections became almost equivalent. eating rate (%)=100×amount eaten (g)/initial feed weight (g) <Repellent Test>
After completion of the acclimation operation, the same feed (solid food CE-2 for breeding and raising, manufactured by CLEA Japan, Inc.) (about 10 g) was placed in the both test sections. […] After 1 hr from setting the filter paper, the door of the connection part between the residential section and the path was closed, and thereafter the door was opened. After lapse of one day from the start of the test, the feed remaining in the both test sections was weighed. When the test was continued for not less than one day, the feed in the both test sections was exchanged every other day, and the remaining feed was weighed every day.
The repellent rate was calculated by the following formula. The test section where the filter paper (diameter 70 mm, manufactured by Advantec Toyo Kaisha, Ltd.) treated with the test compound was set was taken as the treatment section, and the test section where the filter paper was not set was taken as the non-treatment section. repellent rate (%)=100×(amount eaten in non-treatment section−amount eaten in treatment section)/(amount eaten in non-treatment section+amount eaten in treatment section)

SMILES	repellent rate (%) (number of observation days 1)	repellent rate (%) (number of observation days 3)
c1ccc2scnc2c1 [Comparison compound C, reference compound]	4%	–
Sc1nc2ccccc2s1 [comparison compound A, reference compound]	0%	–
c1ccc(-c2nc3ccccc3s2)cc1 [comparison compound B, reference compound]	0%	–
CC(C)Cc1nc2ccccc2s1 [present compound 5, 2-isobutyl-1,3-benzothiazole]	94%	–
FC(F)(F)c1nc2ccccc2s1 [present compound 6, 2-trifluoromethyl-1,3-benzothiazole]	100%	–
Cc1nc2c(C)cccc2s1 [present compound 13, 2,4-dimethyl-1,3-benzothiazole]	100%	100%
CC1(C)Nc2ccccc2S1 [present compound 14, 2,2-dimethyl-2,3-dihydro-1,3-benzothiazole]	100%	92%
